{"source": "patent US20210207099A1", "about": "“METHODS AND COMPOSITIONS FOR GENERATING CELLS OF ENDODERMAL LINEAGE AND BETA CELLS AND USES THEREOF” (priority 2018, published 2021)", "format_in_all_cases": "cell-based, human", "key": {"[1]": {"test_system": "plated pancreatic progenitors", "test": "Single-cell RNA sequencing of plated pancreatic progenitors treated throughout stage 4", "settings": "0.5 μM latrunculin A throughout stage 4", "method": "Cells generated with the suspension protocol were single-cell dispersed with TrypLE from clusters at the end of stage 3 and seeded onto collagen 1 coated 24-well plates at 0.625×10^6 cells/cm^2. Either 0.5 μM latrunculin A or 5 μM nocodazole were added throughout the entirety of stage 4. At the end of stage 4, cells were single-cell dispersed, suspended in DMEM, and submitted to the Washington University Genome Technology Access Center. Library preparation was done using the Chromium Single Cell 3′ Library and Gel Bead Kit v2 (10× Genomics, 120237). Briefly, single cells were isolated in emulsions using a microfluidic platform, and each single cell emulsion was barcoded with a unique set of oligonucleotides. The GemCode Platform was used to carry out reverse transcription within each single cell emulsion, which was amplified to construct a library. The libraries were sequenced with paired-end reads of 26×98 primerbp using the Illumina HiSeq2500.\nSeurat v2.0 was used to perform single cell RNA analyses. Duplicate cells and cells with high mitochondrial gene expression were filtered out using FilterCells (>9000 total genes and >5% mitochondrial genes for Untreated Control, >6000 genes and >6% mitochondrial genes for latrunculin A, >12000 genes and >4% mitochondrial genes for nocodazole). Each data set was normalized using global-scaling normalization. FindVariableGenes identified and removed outlier genes using scaled z-score dispersion. The datasets were then combined and a canonical correlation analysis (CCA) was performed with RunMultiCCA. AlignSubspace was used to align the CCA subspaces and generated a new dimension reduction for integrated analysis. Unsupervised TSNE plots were generated using RunTSNE, and the resulting clusters were defined and labeled using FindMarkers. VInPlot (Violin plots) and FeaturePlot (tsne plots) were used to visualize differences in gene expressions across each cluster and conditions."}, "[2]": {"test_system": "HUES8 cells differentiated with the planar protocol", "test": "Latrunculin A in the completely planar SC-β cell differentiation protocol", "quoted_text": "Planar protocol: 24 hours after passaging, cells seeded onto 6 or 24-well plates at 0.313-0.521×10^6 cells/cm^2 were differentiated with a new 6 stage protocol using the following formulations, with media changes every day. Stage 1 (4 days): BE1 media+100 ng/mL Activin A+3 μM CHIR99021 for the first 24 hours, followed with 3 days of BE1 containing 100 ng/mL Activin A only. Stage 2 (2 days): BE2 media+50 ng/mL KGF. Stage 3 (2 days): BE3+50 ng/mL KGF, 200 nM LDN193189, 500 nM TPPB (Tocris, 53431), 2 μM retinoic acid, and 0.25 μM SANT1. Stage 4 (4 days): BE3+50 ng/mL KGF, 200 nM LDN193189, 500 nM TPPB, 0.1 μM retinoic acid, and 0.25 μM SANT1. Stage 5 (7 days): S5 media+10 μM ALK5i II+20 ng/mL Betacellulin+0.1 μM retinoic acid+0.25 μM SANT1+1 μM T3+1 μM XXI. 1 μM Latrunculin A was added to this media for the first 24 hours only. Stage 6 (7-25 days): Cultures were kept on the plate with ESFM for the first 7 days. To move to suspension culture, cells could be single cell dispersed with TrypLE and placed in 6 mL ESFM within a 6-well plate at a concentration of 4-5 million cells/well on an orbital shaker at 100 RPM. Assessments were performed 5-8 days after cluster aggregation.\nCells were single-cell dispersed with TrypLE and fixed with 4% PFA for 30 minutes. Cells were then washed with PBS and incubated with ICC solution for 45 minutes at room temperature, incubated with primary antibodies overnight at 4° C., and incubated with secondary antibodies for 2 hours at room temperature. […]"}, "[3]": {"test_system": "HUES8 cells, hepatic differentiation protocol", "test": "Liver differentiation with cytoskeletal compounds", "settings": "1 μM for the first 24 hours of stage 3", "method": "For differentiation to other endodermal lineages, HUES8 stem cells were cultured and passaged normally. Differentiations were initiated 24 hours after seeding 24-well plates at 0.521×10^6 cells/cm^2. Protocols for exocrine pancreas, intestine, and liver were adapted, from literature. Either latrunculin A or nocodazole were added as indicated in each protocol. All three differentiation protocols used the same stage 1 to induce endoderm. Stage 1 (4 days): BE1 media+100 ng/mL Activin A+3 μM CHIR99021 for the first 24 hours, followed with 3 days of BE1 containing 100 ng/mL Activin A only.\nLiver Differentiation: Stage 2 (2 days): BE2 media+50 ng/mL KGF. Stage 3 (4 days): BE3 media+10 ng/mL bFGF+30 ng/mL BMP4 (R&D Systems, 314-BP). For the first 24 hours only, 2 μM retinoic acid and either 1 μM latrunculin A or 1 μM nocodazole were added. Stage 4 (5 days): BE3 media+20 ng/mL OSM (R&D Systems, 295-OM)+20 ng/mL HGF (R&D Systems, 294-HG)+100 nM dexamethasone (MilliporeSigma, D4902)."}, "plated stage 4 cells": {"test_system": "plated stage 4 cells", "test": "qRT-PCR and immunostaining of plated stage 4 cells treated with cytoskeletal modifying compounds", "text": "For experiments investigating the effects of plating pancreatic progenitors, cells were differentiated with the suspension protocol for stages 1-3. At the end of stage 3, clusters were single cell dispersed with TrypLE and plated onto tissue culture plates coated with various ECM proteins at 0.625×10^6 cells/cm^2. Differentiation media for the remainder of this hybrid protocol were the same as for the suspension protocol with the exception that Y-27632 and Activin A were omitted on days 2-5 of stage 4. Additional compounds were added as indicated in each experiment: 1 μM latrunculin A (Cayman Chemical, 10010630), 1 μM latrunculin B (Cayman Chemical, 10010631), 1 μM cytochalasin D (MilliporeSigma, C2618), 1 μM jasplakinolide (Cayman Chemical, 11705), 10 μM blebbistatin (MilliporeSigma, 203389), 1 μM nocodazole (Cayman Chemical, 13857), 1 μM Y-15 (Cayman Chemical, 14485), 10 μM Y-27632, and 10 μM GDC-0994 (Selleckchem, S7554). A variety of ECM coatings were initially tested with this plating methodology, including collagen I (Corning, 354249), collagen IV (Corning, 354245), fibronectin (Gibco, 33016-015), vitronectin (Gibco, A14700), matrigel (Corning, 356230), gelatin (Fisher, G7-500), and laminins 111, 121, 211, 221, 411, 421, 511, and 521 (Biolamina, LNKT-0201). All subsequent experiments with this hybrid protocol were performed on collagen I.\nBrightfield images were taken with a Leica DMi1 inverted light microscope, and fluorescence images were captured with a Nikon A1Rsi confocal microscope. For immunostaining, cells were fixed with 4% paraformaldehyde (PFA) at room temperature for 30 minutes. They were then blocked and permeabilized for 45 minutes at room temperature with an immunocytochemistry (ICC) solution consisting of 0.1% triton X (Acros Organics, 327371000) and 5% donkey serum (Jackson Immunoresearch, 017000-121) in PBS (Corning, 21-040-CV). Samples were then incubated with primary antibodies diluted in ICC solution overnight at 4° C., washed with ICC, incubated with secondary antibodies diluted in ICC for 2 hours at room temperature, and stained with DAPI for 15 minutes at room temperature. For histological sectioning, whole SC-β cell clusters generated with the planar protocol and mouse kidneys containing transplanted cells were fixed overnight with 4% PFA at 4° C. The in vitro clusters were also embedded in Histogel (Thermo Scientific, hg-4000-012). These samples were then paraffin-embedded and sectioned by the Division of Comparative Medicine (DCM) Research Animal Diagnostic Laboratory Core at Washington University in St. Louis. Paraffin was removed from sectioned samples with Histoclear (Thermo Scientific, C78-2-G), and antigen retrieval was carried out in a pressure cooker (Proteogenix, 2100 Retriever) with 0.05 M EDTA (Ambion, AM9261). Slides were blocked and permeabilized with ICC solution for 45 minutes, incubated with primary antibodies in ICC solution overnight at 4° C., and incubated with secondary antibodies for 2 hours at room temperature. Slides were then sealed with DAPI Fluoromount-G (SouthernBiotech, 0100-20).\nRNA was extracted from either whole clusters or cells directly on the plate with the RNeasy Mini Kit (Qiagen, 74016). Samples were treated with a DNAse kit (Qiagen, 79254) during extraction. The High Capacity cDNA Reverse Transcriptase Kit (Applied Biosystems, 4368814) was used to synthesize cDNA on a thermocycler (Applied Biosystems, A37028). The PowerUp SYBR Green Master Mix (Applied Biosystems, A25741) was used on a StepOnePlus (Applied Biosystems), and real time PCR results were analyzed using a ΔΔCt methodology. TBP and GUSB were both used as housekeeping genes. Primer sequences were as follows."}}, "data": [{"compound": "C/C1=C/C(=O)O[C@@H]2C[C@@H](CC[C@H](C)/C=C\\C=C\\CC1)O[C@@](O)([C@@H]1CSC(=O)N1)C2", "note": "[latrunculin A]", "values": [{"measurement": "percentage of cells in the NKX6-1+ population (pancreatic progenitor 2)", "setting": "[1]", "result": 2.5, "unit": "%"}, {"measurement": "percentage of cells with endocrine induction", "setting": "[1]", "result": 44.7, "unit": "%"}, {"measurement": "endocrine induction, SC-β cell specification and off-target lineages", "setting": "[2]; 1 μM for the first 24 hours of stage 5", "result": "greatly increased endocrine induction and SC-β cell specification while decreasing off-target lineages"}, {"measurement": "NKX6-1 expression", "setting": "[2]; added during stage 4 (0.5 μM)", "result": "decreasing NKX6-1 expression"}, {"measurement": "premature expression of NEUROG3 and its downstream targets", "setting": "[2]; added during stage 4 (0.5 μM)", "result": "dramatically increased premature expression of NEUROG3"}, {"measurement": "hepatocyte gene expression", "setting": "[3]", "result": "increased hepatocyte gene expression"}, {"measurement": "immunostaining for AFP", "setting": "[3]", "result": "more prevalent with latrunculin A treatment"}, {"measurement": "NEUROG3+ and NKX6-1+ cells by immunostaining", "setting": "plated stage 4 cells; 1 μM, plated cells at the end of stage 4", "result": "increases NEUROG3+ and decreases NKX6-1+ cells"}, {"measurement": "dose response of NEUROG3 expression", "setting": "plated stage 4 cells; added during stage 4, qRT-PCR", "result": "highly dose-dependent"}, {"measurement": "expression of NEUROG3 and downstream targets NKX2.2 and NEUROD1", "setting": "plated stage 4 cells; compound screen, plated stage 4 cells, qRT-PCR", "result": "greatly increased expression of NEUROG3"}, {"measurement": "NKX6-1 expression", "setting": "plated stage 4 cells; latrunculin treatment during stage 4", "result": "followed the reverse trend as NEUROG3"}]}]}
